# From US20230365625A1, “METHODS FOR TREATING AND/OR PREVENTING UNDESIRABLE SEQULAE OF NASAL TURBINOPLASTY OR FUNCTIONAL ENDOSCOPIC SINUS SURGERY” (3-D Matrix, Ltd., priority 2022, published 2023)
# Where “and” joins values, the source holds several entries; their conditions need not be identical. Equal entries are not always repeated. Entries after “also recorded” stand apart in the source; their conditions may differ.
# Key:
# [1] = RADA16 2.5%, IEIK13 1.3%, QLEL12 0.15% in water; result in words; cited from earlier work
# [2] = test system: turbinate reduction surgery (TRS/Turbinoplasty); settings: first follow-up at four weeks; result in words; cited from earlier work
# [3] = test system: nasal mucosal injuries on the middle turbinate and opposing nasal septum; test: Endoscopic grading of synechiae/adhesion formation at day 14 and day 42, sheep model; type: in vivo, Merino sheep; parameters: key to Adhesion score day 14 / Adhesion score day 42: 0: No intranasal adhesions/synechiae; 1: Intranasal adhesion extends less than 25% to septum; Intranasal adhesion extends 25-50% to septum; 3: Intranasal adhesion extends more than 50% to septum; 4: Completely formed adhesion/synechiae extending to septum; settings: for Number of sites, synechiae Grade 0 / Number of sites, synechiae Grade 1 / Number of sites, synechiae Grade 2 / Number of sites, synechiae Grade 3 / Number of sites, synechiae Grade 4: 20 sites per group
# Protocol: Post-operative observations—Post recovery from anesthesia, the animals were returned to their pens with ongoing daily monitoring for 14 days, including bloody nasal discharge, temperature, and food and water intake. On each postoperative day, the animals were examined externally by an independent observer, with no involvement in the operation, for the presence of bloody nasal discharges. External blood was cleaned off after each examination followed with irrigation of each nostril using 20 ml of saline solution. Regular irrigation of the nose and sinuses is standard in post-operative care following nasal surgery. The sheep were sedated and examined via endoscope again on day 14 for the presence of adhesions and graded by an independent observer using the grading scheme below for sheep nasal adhesions. Representative endoscopic images for sites (two sites/sides per sheep) treated with PuraSinus (SEQ ID NO:1) are shown in FIG. 1 and untreated control sites are shown in FIG. 2, respectively. The sheep were euthanized at day 42, with a necropsy performed by the same independent observer grading intranasal adhesion formation and extension. […] [table]
# [4] = test system: mucosa at the operated middle turbinate sites; test: Histopathology of the surgical site at 6 weeks (H&E, 6 markers of wound healing), sheep model; type: in vivo, Merino sheep
# Protocol: Termination—At day 42, the animals were euthanized with standard terminal procedures through an intravenous injection of sodium pentobarbital. Post-termination, the mucosa at the operated middle turbinate sites were excised and prepared via hematoxylin and eosin staining by a veterinary histopathologist using 6 different markers of wound healing as shown in Table 3. [table] Histopathology observations—Vertical incisions through the roof and floor of the nasal cavity were performed during necropsy after endoscopic evaluation. This allowed both lateral nasal walls to be opened outwards from the septum whereby the operated mucosa adjacent to the vomer could be easily identified and excised atraumatically. Specimens were preserved in 10% neutral buffered formalin and transported for hematoxylin and eosin staining and slide preparation. Example specimens are shown in FIGS. 4A and 4B for PuraSinus treated tissue and FIGS. 5A and 5B for FLOSEAL treated tissue. Individual sample observations are presented in Appendix 3.
# [5] = individual site, 6 weeks, scale 0-3, listed as P
# [6] = individual site, 6 weeks, scale −1-1, listed as P
smiles,measurement,setting,value
"CC(=O)N[C@@H](CCCNC(=N)N)C(=O)N[C@@H](C)C(=O)N[C@@H](CC(=O)O)C(=O)N[C@@H](C)C(=O)N[C@@H](CCCNC(=N)N)C(=O)N[C@@H](C)C(=O)N[C@@H](CC(=O)O)C(=O)N[C@@H](C)C(=O)N[C@@H](CCCNC(=N)N)C(=O)N[C@@H](C)C(=O)N[C@@H](CC(=O)O)C(=O)N[C@@H](C)C(=O)N[C@@H](CCCNC(=N)N)C(=O)N[C@@H](C)C(=O)N[C@@H](CC(=O)O)C(=O)N[C@@H](C)C(N)=O [PuraSinus, Ac-RADARADARADARADA-NH2]",Effect of gamma-irradiation sterilization,[1],enhanced the rheological properties
same,Postoperative bleeding or adhesion formation,[2],none of their patients experiencing bleeding or adhesion formation postoperatively
same,Reduction of two-week synechiae score versus Controls,[3]; 2 weeks,91%
same,Reduction of two-week synechiae score versus Gelatin-thrombin treatment,[3]; 2 weeks,92%
same,Reduction of six-week synechiae score,[3]; 6 weeks,100%
same,Sites in which synechiae occurred,[3]; at 2 weeks,20%
same,Sites in which synechiae occurred,[3]; at 6 weeks,0%
same,Adhesion score day 42,"[3]; individual site, grade 0-4",0
same,Adhesion score day 14,"[3]; individual site, grade 0-4, listed as P",0 (16×) and 1 (Intranasal adhesion extends less than 25% to septum) (3×) and 2 (Intranasal adhesion extends 25-50% to septum)
same,Two-week synechiae score,"[3]; maximum 4 points, mean±SD",0.3±0.6 points
same,Synechiae formation compared to FLOSEAL and untreated control,"[3]; sheep, result in words",lowest observed synechiae formation; also recorded: more effective in inhibiting the formation of synechiae; also recorded: statistically significant lower incidence of adhesions; also recorded: significantly reduced synechiae formation
same,"Number of sites, synechiae Grade 0",[3]; six weeks post-surgery,20
same,"Number of sites, synechiae Grade 1",[3]; six weeks post-surgery,0
same,"Number of sites, synechiae Grade 2",[3]; six weeks post-surgery,0
same,"Number of sites, synechiae Grade 3",[3]; six weeks post-surgery,0
same,"Number of sites, synechiae Grade 4",[3]; six weeks post-surgery,0
same,"Number of sites, synechiae Grade 0",[3]; two weeks post-surgery,16
same,"Number of sites, synechiae Grade 1",[3]; two weeks post-surgery,3
same,"Number of sites, synechiae Grade 2",[3]; two weeks post-surgery,1
same,"Number of sites, synechiae Grade 3",[3]; two weeks post-surgery,0
same,"Number of sites, synechiae Grade 4",[3]; two weeks post-surgery,0
same,Angiogenesis (A): number of sites Grade 0,[4]; 6 weeks,9
same,Angiogenesis (A): number of sites Grade 1,[4]; 6 weeks,6
same,Angiogenesis (A): number of sites Grade 2,[4]; 6 weeks,4
same,Angiogenesis (A): number of sites Grade 3,[4]; 6 weeks,1
same,Epithelial erosion (EE): number of sites Grade 0,[4]; 6 weeks,5
same,Epithelial erosion (EE): number of sites Grade 1,[4]; 6 weeks,8
same,Epithelial erosion (EE): number of sites Grade 2,[4]; 6 weeks,6
same,Epithelial erosion (EE): number of sites Grade 3,[4]; 6 weeks,1
same,Goblet cells (GC): number of sites Grade 0,[4]; 6 weeks,6
same,Goblet cells (GC): number of sites Grade +1,[4]; 6 weeks,6
same,Goblet cells (GC): number of sites Grade −1,[4]; 6 weeks,8
same,Inflammatory infiltrate (II): number of sites Grade 0,[4]; 6 weeks,3
same,Inflammatory infiltrate (II): number of sites Grade 1,[4]; 6 weeks,13
same,Inflammatory infiltrate (II): number of sites Grade 2,[4]; 6 weeks,4
same,Inflammatory infiltrate (II): number of sites Grade 3,[4]; 6 weeks,0
same,Sero-mucous glands (SMC): number of sites Grade 0,[4]; 6 weeks,14
same,Sero-mucous glands (SMC): number of sites Grade +1,[4]; 6 weeks,0
same,Sero-mucous glands (SMC): number of sites Grade −1,[4]; 6 weeks,6
same,Submucosal fibrosis (SF): number of sites Grade 0,[4]; 6 weeks,4
same,Submucosal fibrosis (SF): number of sites Grade 1,[4]; 6 weeks,12
same,Submucosal fibrosis (SF): number of sites Grade 2,[4]; 6 weeks,3
same,Submucosal fibrosis (SF): number of sites Grade 3,[4]; 6 weeks,1
same,Mucosal regeneration / wound healing on histopathology,"[4]; 6 weeks, result in words",favorable outcomes for wound healing enhancement across all 6 metrics; also recorded: enhancement to mucosal regeneration; also recorded: more commonly associated with enhanced mucosal regeneration; also recorded: improved outcome
same,Angiogenesis (A): Mean score,"[4]; 6 weeks, scale 0-3",0.85
same,Epithelial erosion (EE): Mean score,"[4]; 6 weeks, scale 0-3",1.15
same,Inflammatory infiltrate (II): Mean score,"[4]; 6 weeks, scale 0-3",1.05
same,Submucosal fibrosis (SF): Mean score,"[4]; 6 weeks, scale 0-3",1.05
same,Goblet cells (GC): Mean score,"[4]; 6 weeks, scale −1-1",−0.1
same,Sero-mucous glands (SMC): Mean score,"[4]; 6 weeks, scale −1-1",−0.3
same,A (angiogenesis) grade,[4]; [5],1 (6×) and 3 and 0 (9×) and 2 (4×)
same,EE (epithelial erosion) grade,[4]; [5],1 (8×) and 2 (6×) and 0 (5×) and 3
same,II (inflammatory infiltrate) grade,[4]; [5],2 (4×) and 1 (13×) and 0 (3×)
same,SF (submucosal fibrosis) grade,[4]; [5],1 (12×) and 2 (3×) and 0 (4×) and 3
same,GC (goblet cells) grade,[4]; [6],−1 (8×) and 1 (6×) and 0 (6×)
same,SMC (sero-mucous glands) grade,[4]; [6],−1 (6×) and 0 (14×)
same,6-week histopathology scores,"[4]; result in words, driven by reduced submucosal fibrosis and angiogenesis",significantly lower
